Source: patent publication US12728111B2, “Electrophilic compounds and electrophilic prodrugs for treating aneurysm” (University of Pittsburgh—Of the Commonwealth System of …, priority 2020, dated 2026)

Key:
EPRAP/p105 interaction = target: T1, EPRAP/p105 interaction (Homo sapiens, UniProt P19838+Q9BSK4); assay: Co-IP of HA-tagged EPRAP (FEM1A) and p105; format: cell-based; conditions: up to 5 μM; cells overexpressing HA-tagged EPRAP (FEM1A) and p105
T1 construct: Addgene (p105 plasmid) #HG21487-NY; plasmid #23288
T1 sequence (Q9BSK4 1-669): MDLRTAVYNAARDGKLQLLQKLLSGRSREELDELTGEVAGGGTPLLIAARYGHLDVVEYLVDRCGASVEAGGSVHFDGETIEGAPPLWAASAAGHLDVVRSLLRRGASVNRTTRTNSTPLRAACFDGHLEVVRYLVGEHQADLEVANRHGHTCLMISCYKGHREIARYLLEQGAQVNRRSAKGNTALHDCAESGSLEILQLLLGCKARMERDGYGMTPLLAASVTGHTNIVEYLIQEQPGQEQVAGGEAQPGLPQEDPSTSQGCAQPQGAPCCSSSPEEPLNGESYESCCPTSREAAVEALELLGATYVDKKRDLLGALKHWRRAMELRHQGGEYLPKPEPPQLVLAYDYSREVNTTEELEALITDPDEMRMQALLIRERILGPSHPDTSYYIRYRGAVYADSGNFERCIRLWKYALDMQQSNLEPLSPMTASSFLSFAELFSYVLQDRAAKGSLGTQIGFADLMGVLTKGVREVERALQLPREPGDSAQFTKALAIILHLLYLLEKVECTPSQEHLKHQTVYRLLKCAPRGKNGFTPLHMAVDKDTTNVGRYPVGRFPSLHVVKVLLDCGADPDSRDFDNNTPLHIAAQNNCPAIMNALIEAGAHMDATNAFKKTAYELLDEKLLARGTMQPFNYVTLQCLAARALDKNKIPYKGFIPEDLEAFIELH
T1 sequence (P19838 1-968): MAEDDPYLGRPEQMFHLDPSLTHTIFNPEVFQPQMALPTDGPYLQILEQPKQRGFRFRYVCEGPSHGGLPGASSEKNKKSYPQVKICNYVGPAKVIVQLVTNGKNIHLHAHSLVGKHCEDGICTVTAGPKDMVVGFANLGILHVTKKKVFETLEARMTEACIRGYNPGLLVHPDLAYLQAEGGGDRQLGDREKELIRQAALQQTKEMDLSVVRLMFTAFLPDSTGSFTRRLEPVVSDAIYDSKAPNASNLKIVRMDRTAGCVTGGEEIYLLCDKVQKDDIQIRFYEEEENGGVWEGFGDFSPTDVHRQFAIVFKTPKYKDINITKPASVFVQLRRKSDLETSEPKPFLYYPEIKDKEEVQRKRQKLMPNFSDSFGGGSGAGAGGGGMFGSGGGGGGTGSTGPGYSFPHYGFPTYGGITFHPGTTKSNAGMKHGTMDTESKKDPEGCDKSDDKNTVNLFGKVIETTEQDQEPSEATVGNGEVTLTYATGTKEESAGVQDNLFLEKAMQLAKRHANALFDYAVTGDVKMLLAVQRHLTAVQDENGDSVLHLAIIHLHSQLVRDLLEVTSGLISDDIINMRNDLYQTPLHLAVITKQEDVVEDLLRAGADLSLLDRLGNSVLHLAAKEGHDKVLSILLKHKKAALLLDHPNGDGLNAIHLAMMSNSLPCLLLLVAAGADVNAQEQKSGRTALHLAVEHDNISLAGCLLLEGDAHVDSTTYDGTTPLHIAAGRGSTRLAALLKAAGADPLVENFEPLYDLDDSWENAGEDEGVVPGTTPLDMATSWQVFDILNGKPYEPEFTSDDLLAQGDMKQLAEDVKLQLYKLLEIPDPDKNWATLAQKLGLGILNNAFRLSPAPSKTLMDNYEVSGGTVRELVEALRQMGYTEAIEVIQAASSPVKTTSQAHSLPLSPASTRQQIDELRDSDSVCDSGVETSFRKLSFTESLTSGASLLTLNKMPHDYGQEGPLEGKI
Text: Nuclear/cytoplasm protein extraction, co-Immunoprecipitation and immunoblotting NE-PER™ Nuclear and Cytoplasmic Extraction Reagents (#78835, ThermoFisher) were used for nuclear and cytoplasmic protein extraction. For Co-IP, cells were lysed using Cell Lysis Buffer (#9803, CST) supplemented with PMSF (#8553, CST), immunoprecipitated using Protein G Magnetic Beads (#7024, CST) and antibodies against HA (#AE008, ABclonal) or p50/p105(#13586, CST) following the manufacture's protocol. For immunoblot, protein extracts were resolved in SDS-PAGE gels and transferred to nitrocellulose membranes. Membranes were blocked by 5% BSA and incubated with the primary antibody at 4° C. overnight followed by incubation with fluorescence conjugated secondary antibody for 1 h at room temperature. Band intensity was collected with the Odyssey® CLx Imaging System and quantified using Image Studio™ Lite.

oxLDL-treated BMDMs = assay: Cytokine ELISA in medium of oxLDL-treated BMDMs; format: cell-based, mouse; conditions: 2.5 μM, 8 h oxLDL, vs control
Experimental: FIG. 3. NO2—OA prevents oxLDL-induced NFκB activation and pro-inflammatory cytokine production. Primary BMDMs were pretreated with vehicle, OA (2.5 μM) or NO2—OA (2.5 μM) for 1 h, followed by treatment of oxLDL (50 to 100 μg/ml) for the indicated times. (A, B) Nuclear (A) and cytoplasmic protein (B) fractions were isolated 1 h after oxLDL treatment and subjected to western blot with antibodies against p65, lamin a/c (nuclear marker) and GAPDH (cytosolic marker). Representative western blot images of three independent experiments are shown. (C) Quantification of the p65 nuclear to cytoplasmic ratio by image studio (normalized by the internal control, n=3). (D-F) Following 8 h of oxLDL treatment, levels of IL6, MCP1 and TNFα in the cell medium were measured by ELISA (n=4). (G) Real-time PCR quantification of gene expression levels of IL1b and Mmp9 in total mRNA extracted from the BMDMs. (C) Ordinary one-way ANOVA followed by Tukey's test was performed. As of (D-F), the basal level contains several non-detectable values, so ordinary one-way ANOVA followed by correction of FDR were performed for the oxLDL-treated groups only. Ordinary one-way ANOVA followed by Tukey's test was performed for (G). Data presented as mean±SEM. A p<0.05 for both the main test and post hoc test was considered statistically significant.
Murine RAW 264.7 cell line, 293T/17 cell line and Primary Umbilical Vein Endothelial Cells (PCS-100-010, HUVECs) were purchased from ATCC (Manassas, VA) and cultured in DMEM (Gibco) with 10% FBS (Thermo Fisher Scientific) or M199 (Gibco) supplemented with 20% FBS for HUVECs. BMDMs isolated from 12 to 16-week-old C57BL/6 wild type mice were cultured in bone marrow macrophage differentiation media. The differentiation medium was prepared by adding L-cell conditioned media (30%), non-essential amino acids (#11140-050, Gibco), sodium pyruvate (1 mM, #11360-070, Gibco), 2-Mercaptoethanol (55 μM) and 10% FBS into Iscove's Modified Dulbecco's Medium (IMDM, Gibco).

CCCCCCCCC(=CCCCCCCCC(=O)O)[N+](=O)[O-] [NO2—OA, 10-nitro-octadec-9-enoic acid]
effect on the EPRAP/p105 interaction (EPRAP/p105 interaction): no significant effect | IL6 level in oxLDL-treated cell medium (oxLDL-treated BMDMs): significant decrease | MCP1 level in oxLDL-treated cell medium (oxLDL-treated BMDMs): marginally significant reduction | TNFα levels in oxLDL-treated cell medium (oxLDL-treated BMDMs): no significant difference
